Experimental data: US20250197409A1, “BIFUNCTIONAL COMPOUND AND PHARMACEUTICAL COMPOSITION COMPRISING THE BIFUNCTIONAL COMPOUND, AND METHOD FOR TREATING ANDROGEN RECEPTOR RELATED DISEASE BY USING THE SAME” (ANHORN MEDICINES CO., LTD., priority 2022, published 2025)
Like-named read-outs stand apart in the source and are kept apart here.

Biological target: T1, androgen receptor (Homo sapiens, UniProt P10275, T878A)
T1 construct: host or cells: LNCaP.FGC
Experiment: Androgen receptor degradation assay using Western blot analysis
Format: cell-based
Method: Cells not treated with any of the above-mentioned compounds are used as a negative control.
The internal loading control GAPDH was detected using a mouse monoclonal antibody (1:5000) (GTX627408, GeneTex International Corp., HsinChu City, Taiwan R.O.C.) and a goat anti-mouse HRP-conjugated secondary antibody (1:5000 dilution) (C04001, Croyez Bioscience Co., Ltd., Taipei City, Taiwan R.O.C.).
AR remaining percentage was determined by the intensity difference of AR signals (each was normalized by the corresponding internal loading control GAPDH) between the protein samples from the untreated cells (100%) and those from the treated cells. “Cpd. #” indicates the compound number hereinabove.
In addition, several compounds were selected to prepare a treatment stock solutions at 100 nM in RPMI medium. The treatment stock solutions were separately serially diluted (10×) with RPMI medium for treating LNCaP.FGC cells seeded with 2×10^5 cells per well in 24-well tissue culture plates. A calibration curve was determined by the serial diluted samples for each compound, and the concentration needed for 50% AR degradation (AR DC50) for each compound was calculated.

[1] = 24 h, LNCaP.FGC cells, 100 nM, 24 hr, normalized to GAPDH, untreated cells = 100%; read-out: Androgen Receptor Remaining (%)
[2] = LNCaP.FGC cells, serial 10x dilutions from 100 nM; read-out: AR DC50 (concentration needed for 50% AR degradation)
[3] = 24 h, read-out: Androgen Receptor Remaining (%), LNCaP.FGC cells, 100 nM, 24 hr, normalized to GAPDH, untreated cells = 100%
[4] = read-out: AR DC50 (concentration needed for 50% AR degradation); LNCaP.FGC cells, serial 10x dilutions from 100 nM

T1 sequence (P10275 whole entry T878A): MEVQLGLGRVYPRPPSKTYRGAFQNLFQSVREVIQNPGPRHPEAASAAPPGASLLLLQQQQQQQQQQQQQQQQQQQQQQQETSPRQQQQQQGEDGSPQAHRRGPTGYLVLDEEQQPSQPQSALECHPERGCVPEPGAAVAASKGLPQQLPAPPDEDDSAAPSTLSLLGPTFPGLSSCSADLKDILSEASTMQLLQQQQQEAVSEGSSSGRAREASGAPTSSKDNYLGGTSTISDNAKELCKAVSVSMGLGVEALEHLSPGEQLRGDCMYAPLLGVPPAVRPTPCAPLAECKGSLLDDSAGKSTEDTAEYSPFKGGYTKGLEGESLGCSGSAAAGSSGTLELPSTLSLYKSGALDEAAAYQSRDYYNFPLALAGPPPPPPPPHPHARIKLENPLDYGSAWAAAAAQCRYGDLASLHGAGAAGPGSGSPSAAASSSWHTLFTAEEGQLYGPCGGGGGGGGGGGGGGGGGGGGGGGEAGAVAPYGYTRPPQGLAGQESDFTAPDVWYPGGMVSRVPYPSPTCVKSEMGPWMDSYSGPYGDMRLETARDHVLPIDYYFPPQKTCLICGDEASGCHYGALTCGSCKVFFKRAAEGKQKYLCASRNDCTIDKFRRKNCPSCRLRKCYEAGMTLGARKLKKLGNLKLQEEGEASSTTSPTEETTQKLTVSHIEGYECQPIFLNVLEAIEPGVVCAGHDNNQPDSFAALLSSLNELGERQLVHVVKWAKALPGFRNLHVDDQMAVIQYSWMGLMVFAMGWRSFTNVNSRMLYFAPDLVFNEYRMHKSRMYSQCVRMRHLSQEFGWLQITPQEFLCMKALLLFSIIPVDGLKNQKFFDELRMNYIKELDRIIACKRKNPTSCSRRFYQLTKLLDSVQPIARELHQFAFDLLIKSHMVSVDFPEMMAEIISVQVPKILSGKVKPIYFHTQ
T1 sequence (Q96SW2 whole entry partner): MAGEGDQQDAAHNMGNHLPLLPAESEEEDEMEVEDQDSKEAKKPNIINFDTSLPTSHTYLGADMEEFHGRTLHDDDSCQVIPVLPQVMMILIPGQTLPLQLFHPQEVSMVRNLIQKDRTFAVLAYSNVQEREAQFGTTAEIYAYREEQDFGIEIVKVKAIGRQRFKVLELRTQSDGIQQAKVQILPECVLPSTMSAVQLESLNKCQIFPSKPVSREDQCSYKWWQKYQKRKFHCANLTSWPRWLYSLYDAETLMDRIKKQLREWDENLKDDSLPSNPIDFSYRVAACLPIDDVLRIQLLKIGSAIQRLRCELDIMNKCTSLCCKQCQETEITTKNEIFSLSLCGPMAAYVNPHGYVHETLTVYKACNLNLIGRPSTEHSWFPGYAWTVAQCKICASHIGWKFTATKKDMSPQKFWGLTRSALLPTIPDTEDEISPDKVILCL

Row | Structure (SMILES) | remaining activity at 0.1 µM [1] [%] | DC50 [2] [nM] | remaining activity at 0.1 µM [3] [%] | DC50 [4] [nM]
1 | Cn1c2c(c3ccc(NC(=O)CN4CCN(c5ccc(C(=O)N[C@H]6CC[C@H](Oc7ccc(C#N)c(Cl)c7)CC6)nn5)CC4)cc31)C(=O)N(C1CCC(=O)NC1=O)C2=O (stereo partly drawn) [Compound 41] | 81 |  |  | 
2 | Cn1c2c(c3ccc(NC(=O)CN4CCN(c5ccc(C(=O)N[C@H]6C(C)(C)[C@H](Oc7ccc(C#N)c(Cl)c7)C6(C)C)cn5)CC4)cc31)C(=O)N(C1CCC(=O)NC1=O)C2=O (stereo partly drawn) [Compound 42] | 30 | 10 to 25 |  | 
3 | Cn1c2c(c3cccc(OCCCN4CCN(c5ccc(C(=O)N[C@H]6CC[C@H](Oc7ccc(C#N)c(Cl)c7)CC6)nn5)CC4)c31)C(=O)N(C1CCC(=O)NC1=O)C2=O (stereo partly drawn) [Compound 43] | 26 | 25 to 100 |  | 
4 | Cn1c2c(c3ccc(OCCCN4CCC(c5ncc(C(=O)N[C@H]6CC[C@H](Oc7ccc(C#N)c(Cl)c7)CC6)cn5)CC4)cc31)C(=O)N(C1CCC(=O)NC1=O)C2=O (stereo partly drawn) [Compound 44] |  | 25 to 100 |  | 
5 | Cn1c2c(c3ccc(OCCN4CCC(c5ncc(C(=O)N[C@H]6CC[C@H](Oc7ccc(C#N)c(Cl)c7)CC6)cn5)CC4)cc31)C(=O)N(C1CCC(=O)NC1=O)C2=O (stereo partly drawn) [Compound 45] |  | 25 to 100 |  | 
6 | CCn1c2c(c3ccc(OCCCN4CCCN(c5ccc(C(=O)N[C@H]6CC[C@H](Oc7ccc(C#N)c(Cl)c7)CC6)nn5)CC4)cc31)C(=O)N(C1CCC(=O)NC1=O)C2=O (stereo partly drawn) [Compound 46] |  |  | 20 | 10 to 25
7 | CCn1c2c(c3ccc(OCCCN4C5CCC4CN(c4ccc(C(=O)N[C@H]6CC[C@H](Oc7ccc(C#N)c(Cl)c7)CC6)nn4)C5)cc31)C(=O)N(C1CCC(=O)NC1=O)C2=O (stereo partly drawn) [Compound 47] |  |  | 19 | 10 to 25
8 | CCn1c2c(c3ccc(OCCCN4CCC5(CC4)CN(c4ccc(C(=O)N[C@H]6CC[C@H](Oc7ccc(C#N)c(Cl)c7)CC6)nn4)C5)cc31)C(=O)N(C1CCC(=O)NC1=O)C2=O (stereo partly drawn) [Compound 48] |  |  | 20 | < 10
9 | CCn1c2c(c3ccc(OCCCN4CCC5(CC4)CN(c4ccc(C(=O)N[C@H]6C(C)(C)[C@H](Oc7ccc(C#N)c(Cl)c7)C6(C)C)nn4)C5)cc31)C(=O)N(C1CCC(=O)NC1=O)C2=O (stereo partly drawn) [Compound 49] |  |  | 36 | 25 to 100
10 | Cn1c2c(c3ccc(NC(=O)CN4CCN(c5ccc(C(=O)N[C@H]6C(C)(C)[C@H](Oc7ccc(C#N)c(Cl)c7)C6(C)C)nn5)CC4)cc31)C(=O)N(C1CCC(=O)NC1=O)C2=O (stereo partly drawn) [Compound 50] | 45 | 25 to 100 |  | 
11 | CCn1c2c(c3ccc(OCCN4CCC5(CC4)CN(c4ccc(C(=O)N[C@H]6C(C)(C)[C@H](Oc7ccc(C#N)c(Cl)c7)C6(C)C)nn4)C5)cc31)C(=O)N(C1CCC(=O)NC1=O)C2=O (stereo partly drawn) [Compound 51] |  |  | 20 | 25 to 100
12 | CCn1c2c(c3ccc(OCCN4CCCN(c5ccc(C(=O)N[C@H]6CC[C@H](Oc7ccc(C#N)c(Cl)c7)CC6)nn5)CC4)cc31)C(=O)N(C1CCC(=O)NC1=O)C2=O (stereo partly drawn) [Compound 52] |  |  | 42 | 10 to 25
13 | CCn1c2c(c3ccc(OCCN4CCCN(c5ccc(C(=O)N[C@H]6C(C)(C)[C@H](Oc7ccc(C#N)c(Cl)c7)C6(C)C)nn5)CC4)cc31)C(=O)N(C1CCC(=O)NC1=O)C2=O (stereo partly drawn) [Compound 53] |  |  | 77 | 
14 | CCn1c2c(c3ccc(OCCCN4CCCN(c5ccc(C(=O)N[C@H]6C(C)(C)[C@H](Oc7ccc(C#N)c(Cl)c7)C6(C)C)nn5)CC4)cc31)C(=O)N(C1CCC(=O)NC1=O)C2=O (stereo partly drawn) [Compound 54] |  |  | 72 | 
15 | CCn1c2c(c3ccc(OCCN4C[C@H](C)N(c5ccc(C(=O)N[C@H]6CC[C@H](Oc7ccc(C#N)c(Cl)c7)CC6)nn5)C[C@H]4C)cc31)C(=O)N(C1CCC(=O)NC1=O)C2=O (stereo partly drawn) [Compound 55] |  |  | 40 | 25 to 100
16 | CCn1c2c(c3ccc(NC(=O)CN4CCN(c5ccc(C(=O)N[C@H]6C(C)(C)[C@H](Oc7ccc(C#N)c(Cl)c7)C6(C)C)cn5)CC4)cc31)C(=O)N(C1CCC(=O)NC1=O)C2=O (stereo partly drawn) [Compound 56] |  |  | 4 | 25 to 100
